Our source for the EC50 values is paper PMC12186257, “Serendipitous and Systematic Chemoproteomic Discovery of MBLAC2, HINT1, and NME1‑4 Inhibitors from Histone Deacetylase-Targeting Pharmacophores” (ACS Chemical Biology, 2025).

The target of test [1] is T1, ALDH2 (Homo sapiens, UniProt P05091).
T1 construct: incubated at increasing concentrations with a mixture of lysates of MV4–11 and SW620 cells; endogenous in cells; host or cells: mixed lysate of MV4-11 and SW620 cells
T1 sequence (P05091 18-517): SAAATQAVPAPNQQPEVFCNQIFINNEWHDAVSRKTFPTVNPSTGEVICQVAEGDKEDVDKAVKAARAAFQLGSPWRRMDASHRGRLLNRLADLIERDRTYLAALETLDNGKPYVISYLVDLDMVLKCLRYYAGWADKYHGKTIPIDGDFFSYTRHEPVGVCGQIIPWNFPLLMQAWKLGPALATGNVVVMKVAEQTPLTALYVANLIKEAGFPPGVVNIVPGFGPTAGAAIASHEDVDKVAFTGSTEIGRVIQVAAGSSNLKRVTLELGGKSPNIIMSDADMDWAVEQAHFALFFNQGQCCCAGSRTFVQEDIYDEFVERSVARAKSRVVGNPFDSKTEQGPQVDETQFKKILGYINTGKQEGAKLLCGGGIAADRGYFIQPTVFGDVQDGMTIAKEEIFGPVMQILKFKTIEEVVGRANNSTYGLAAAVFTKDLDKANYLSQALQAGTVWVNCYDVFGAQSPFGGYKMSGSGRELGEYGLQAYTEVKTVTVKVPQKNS
Put plainly: chemoproteomic competition assay (MV4-11/SW620 lysate, iA/iC/iQ beads, MS readout). In kind it is binding. To be noted: nine-dose competition assay; range stated for ALDH2 and GATD3A together. The procedure: (§1) MBLAC2 is a metalloenzyme predicted to harbor one or two Zn^2+ ions in its active site. […] In this assay, compounds of interest are incubated at increasing concentrations with a mixture of lysates of MV4–11 and SW620 cells. The compound-treated lysates are then mixed with bead-immobilized hydroxamic acid-containing compounds iA, iC, and iQ (immobilized Quisinostat), which pull down compound-binding proteins such as HDACs, MBLAC2, ISOC1/2, ALDH2, and GATD3A (Figure a) that can be identified and quantified by mass spectrometry (MS). Proteins targeted by the library compounds in a preincubation step are prevented from being pulled down by the immobilized probes, leading to a dose-dependent reduction in MS signal. Initially, 12 metal-chelating compounds were profiled at two concentrations (10 μM and 100 μM) (Figure S3).
(§2) Chemoproteomic competition assays
(§3) Sample preparation. […]
(§4) LC-MS/MS. The different sample types were measured with different LC-MS/MS settings. MBLAC2 2-dose competition assays were measured with the Lumos1 setup, MBLAC2 9-dose competition assays were measured with the Lumos2 setup, and kinobeads assays were measured with the Eclipse setup.
(§5) Peptides were analyzed via LC–MS/MS on a Dionex Ultimate3000 nano HPLC coupled to either one of two Orbitrap Fusion Lumos mass spectrometers, or to an Orbitrap Eclipse mass spectrometer, operated via the Thermo Scientific Xcalibur software. […]
(§6) In Lumos settings, up to 12 peptide precursors were isolated in (isolation width of 1.2 Th for Lumos1 and 1.7 for Lumos2, maximum injection time of 75 ms, AGC value of 1e5 for Lumos1 and 2e5 for Lumos2), fragmented by HCD using 30% normalized collision energy (NCE) and analyzed in the Orbitrap at a resolution of 15,000 (Lumos2) or 30,000 (Lumos1). […] Peptides were isolated in the quadrupole with an isolation offset of 1.2 (isolation width of 1.2 Th, maximum injection time of 54 ms, AGC target of 200%) and fragmented by HCD with an NCE of 30% and analyzed in the Orbitrap at a resolution of 30,000. […]

Test [2] deals with T2, GATD3A (Homo sapiens, UniProt P0DPI2).
T2 construct: incubated at increasing concentrations with a mixture of lysates of MV4–11 and SW620 cells; endogenous in cells; host or cells: mixed lysate of MV4-11 and SW620 cells
T2 sequence (P0DPI2 42-268): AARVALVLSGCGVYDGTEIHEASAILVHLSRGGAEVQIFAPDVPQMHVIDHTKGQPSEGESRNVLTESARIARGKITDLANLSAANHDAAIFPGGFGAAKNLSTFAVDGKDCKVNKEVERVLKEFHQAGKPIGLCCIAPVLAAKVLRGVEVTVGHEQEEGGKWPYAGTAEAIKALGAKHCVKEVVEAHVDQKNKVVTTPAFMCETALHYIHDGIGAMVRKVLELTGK
Described as above. In kind it is binding. As to conditions: nine-dose competition assay; range stated for ALDH2 and GATD3A together. The procedure:
as §1, §2, §3, §4, §5, §6

For `CC(C)Cc1ccc(C(C)C(=O)NO)cc1` (centres unmarked) [Ibuproxam], the EC50 in test [1] and in test [2] was 23 to 30 µM in each case.
